Source: EP4737486A1, “HYALURONIC ACID DERIVATIVE, AND PREPARATION METHOD THEREFOR AND USE THEREOF” (priority 2023, dated 2025)

Tested on: blood
Assay: Anticoagulant activity by prothrombin time in rat blood (CoaguChek X)
Set-up: species or system male SD rats
Details: 278 µg/mL in rat blood, n = 3; versus normal saline and no-addition groups
Method: The anticoagulant activity of the compound was assessed by measuring prothrombin time according to the reference [Sulakshan Sulakshana et al., Anesth Essays Res., 2021, 15(4): 341-347].
The experimental method and steps are as follows: • 1) About 2 mL of blood was obtained from the abdominal aorta of male SD rats (8 weeks old). One sample corresponded to one rat, and n = 3. • 2) Each substance was added to the blood at a concentration of 27.8 µg/mL or 278 µg/mL, and mixing was performed (generally, 27.8 µg/mL was used for transfusion). • 3) To assess the anticoagulant effect of the samples, prothrombin time was measured using CoaguChek X (Sekisui Medical).
• 1) Normal saline; • 2) Unfractionated heparin (UFH), sodium heparin injection 5000 units/5 mL, Mochida (average molecular weight: 15000); • 3) Fragmin: low molecular weight heparin, average molecular weight of 5000, 5000 units/5 mL; • 4) Arixtra: […], average molecular weight of 1728 (5 mers), 5000 units/5 mL; • 5) No addition.

## CO[C@H]1O[C@H](COS(=O)(=O)O)[C@@H](O[C@@H]2O[C@@H](C(=O)O)[C@@H](O[C@H]3O[C@H](COS(=O)(=O)O)[C@@H](O[C@@H]4O[C@H](C(=O)O)[C@@H](O[C@H]5O[C@H](COS(=O)(=O)O)[C@@H](O)[C@H](O)[C@H]5NS(=O)(=O)O)[C@H](O)[C@H]4O)[C@H](OS(=O)(=O)O)[C@H]3NS(=O)(=O)O)[C@H](O)[C@H]2OS(=O)(=O)O)[C@H](O)[C@H]1NS(=O)(=O)O [Arixtra]
  prothrombin time: significantly longer
